From patent US12122763B2, “Substituted piperidines for androgen receptor degradation” (UBIX THERAPEUTICS, INC., priority 2020, dated 2024)

Biological target: T1, Androgen Receptor (AR) protein (Homo sapiens, UniProt P10275, T878A)
T1 construct: endogenous in cells; host or cells: LNCaP
Experiment: Androgen Receptor (AR) protein degradation assay in LNCaP cells, western blotting
Type: cell-based
Conditions: 20 h; for inhibition at 0.01 µM: 0.01 μM compound; for inhibition at 0.1 µM: 0.1 μM compound; for inhibition at 1 µM: 1 μM compound; for inhibition at 10 µM: 10 μM compound
In short: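 LNCaP prostate cancer cells were cultured 3 days, then treated with compound for 20 h. Lysates in 1% SDS buffer were normalised by BCA, and 8 μg protein was run on 4–12% Bis-Tris gels. AR was immunoblotted with chemiluminescence, using GAPDH/β-actin as loading controls.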

T1 sequence (P10275 whole entry T878A): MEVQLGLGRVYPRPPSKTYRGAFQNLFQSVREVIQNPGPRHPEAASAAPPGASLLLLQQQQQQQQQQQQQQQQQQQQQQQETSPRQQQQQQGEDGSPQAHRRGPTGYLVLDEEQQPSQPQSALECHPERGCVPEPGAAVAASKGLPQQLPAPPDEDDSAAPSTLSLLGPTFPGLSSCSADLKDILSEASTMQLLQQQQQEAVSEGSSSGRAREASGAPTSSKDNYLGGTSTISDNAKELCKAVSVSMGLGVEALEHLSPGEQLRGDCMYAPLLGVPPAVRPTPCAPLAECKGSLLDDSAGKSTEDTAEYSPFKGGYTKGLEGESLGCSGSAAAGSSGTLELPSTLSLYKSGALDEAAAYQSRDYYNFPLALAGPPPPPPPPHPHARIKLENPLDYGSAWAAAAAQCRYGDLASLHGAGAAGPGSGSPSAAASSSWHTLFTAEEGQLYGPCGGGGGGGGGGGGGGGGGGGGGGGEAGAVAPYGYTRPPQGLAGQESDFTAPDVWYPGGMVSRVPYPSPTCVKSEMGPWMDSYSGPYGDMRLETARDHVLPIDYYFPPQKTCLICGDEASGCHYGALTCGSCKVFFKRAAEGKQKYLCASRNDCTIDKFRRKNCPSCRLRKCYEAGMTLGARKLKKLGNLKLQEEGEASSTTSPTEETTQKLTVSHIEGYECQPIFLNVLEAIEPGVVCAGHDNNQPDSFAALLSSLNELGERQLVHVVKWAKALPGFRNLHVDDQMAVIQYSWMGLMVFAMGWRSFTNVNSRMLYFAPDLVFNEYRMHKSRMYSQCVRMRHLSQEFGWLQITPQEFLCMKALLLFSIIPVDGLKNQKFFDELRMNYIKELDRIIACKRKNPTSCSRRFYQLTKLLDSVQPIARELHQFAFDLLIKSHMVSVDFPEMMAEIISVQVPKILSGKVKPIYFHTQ
T1 sequence (Q96SW2 whole entry partner): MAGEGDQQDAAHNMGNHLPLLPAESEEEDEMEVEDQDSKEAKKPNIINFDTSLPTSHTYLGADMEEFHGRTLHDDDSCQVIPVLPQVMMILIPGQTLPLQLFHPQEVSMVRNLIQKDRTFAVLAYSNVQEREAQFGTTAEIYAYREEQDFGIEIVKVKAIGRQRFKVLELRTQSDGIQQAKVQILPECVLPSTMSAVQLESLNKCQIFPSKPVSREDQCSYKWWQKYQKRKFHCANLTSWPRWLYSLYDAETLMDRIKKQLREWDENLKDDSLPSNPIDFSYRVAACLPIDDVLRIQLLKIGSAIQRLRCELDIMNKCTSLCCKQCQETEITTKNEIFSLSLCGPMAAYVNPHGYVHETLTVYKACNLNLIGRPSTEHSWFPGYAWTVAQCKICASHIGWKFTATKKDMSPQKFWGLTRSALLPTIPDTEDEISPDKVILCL

| SMILES | inhibition at 0.01 µM | inhibition at 0.1 µM | inhibition at 1 µM | inhibition at 10 µM |
| --- | --- | --- | --- | --- |
| N#Cc1ccc(N2CCC(F)(C(=O)Nc3ccc(N4CCC(CCN5CCN(c6ccc7c(c6)C(=O)N(C6CCC(=O)NC6=O)C7=O)CC5)CC4)cn3)CC2)cc1C(F)(F)F (centres unmarked) [Example 88, 1-(4-cyano-3-(trifluoromethyl)phenyl)-N-(5-(4-(2-(4-(2-(2,6-dioxopiperidin-3-yl)-1,3-dioxoisoindolin-5-yl)piperazin-1-yl)ethyl)piperidin-1-yl)pyridin-2-yl)-4-fluoropiperidine-4-carboxamide] | 35% | 87% | 96% |  |
| N#Cc1ncc(N2CCC(C(=O)Nc3ccc(N4CCC(CCN5CCN(c6ccc7c(c6)C(=O)N(C6CCC(=O)NC6=O)C7=O)CC5)CC4)cn3)CC2)cc1C(F)(F)F (centres unmarked) [Example 89, 1-(6-cyano-5-(trifluoromethyl)pyridin-3-yl)-N-(5-(4-(2-(4-(2-(2,6-dioxopiperidin-3-yl)-1,3-dioxoisoindolin-5-yl)piperazin-1-yl)ethyl)piperidin-1-yl)pyridin-2-yl)piperidine-4-carboxamide] | 35% | 73% | 91% |  |
| N#Cc1ncc(N2CCC(F)(C(=O)Nc3ccc(N4CCC(CCN5CCN(c6ccc7c(c6)C(=O)N(C6CCC(=O)NC6=O)C7=O)CC5)CC4)cn3)CC2)cc1C(F)(F)F (centres unmarked) [Example 90, 1-(6-cyano-5-(trifluoromethyl)pyridin-3-yl)-N-(5-(4-(2-(4-(2-(2,6-dioxopiperidin-3-yl)-1,3-dioxoisoindolin-5-yl)piperazin-1-yl)ethyl)piperidin-1-yl)pyridin-2-yl)-4-fluoropiperidine-4-carboxamide] | 23% | 57% | 82% |  |
| N#Cc1ccc(N2CCC(C(=O)Nc3ccc(N4CCC(CCN5CCN(C6CCN(c7ccc8c(c7)C(=O)N(C7CCC(=O)NC7=O)C8=O)CC6)CC5)CC4)cn3)CC2)cc1C(F)(F)F (centres unmarked) [Example 91, 1-(4-cyano-3-(trifluoromethyl)phenyl)-N-(5-(4-(2-(4-(1-(2-(2,6-dioxopiperidin-3-yl)-1,3-dioxoisoindolin-5-yl)piperidin-4-yl)piperazin-1-yl)ethyl)piperidin-1-yl)pyridin-2-yl)piperidine-4-carboxamide] | 48% | 96% | 98% |  |
| N#Cc1ccc(N2CCC(C(=O)Nc3ccc(N4CCC(CCN5CCN(c6ccc7c(n6)CN(C6CCC(=O)NC6=O)C7=O)CC5)CC4)cn3)CC2)cc1C(F)(F)F (centres unmarked) [Example 92, 1-(4-cyano-3-(trifluoromethyl)phenyl)-N-(5-(4-(2-(4-(6-(2,6-dioxopiperidin-3-yl)-5-oxo-6,7-dihydro-5H-pyrrolo[3,4-b]pyridin-2-yl)piperazin-1-yl)ethyl)piperidin-1-yl)pyridin-2-yl)piperidine-4-carboxamide] | 53% | 67% | 96% |  |
| N#Cc1ccc(N2CCC(C(=O)Nc3ccc(N4CCC(CCN5CCN(c6cccc7c6C(=O)N(C6CCC(=O)NC6=O)C7=O)CC5)CC4)cn3)CC2)cc1C(F)(F)F (centres unmarked) [Example 93, 1-(4-cyano-3-(trifluoromethyl)phenyl)-N-(5-(4-(2-(4-(2-(2,6-dioxopiperidin-3-yl)-1,3-dioxoisoindolin-4-yl)piperazin-1-yl)ethyl)piperidin-1-yl)pyridin-2-yl)piperidine-4-carboxamide] | -11% | 55% | 68% |  |
| N#Cc1ccc(N2CCC(C(=O)Nc3ccc(N4CCC(CCN5CC6(CCN(c7ccc8c(c7)C(=O)N(C7CCC(=O)NC7=O)C8=O)CC6)C5)CC4)cn3)CC2)cc1C(F)(F)F (centres unmarked) [Example 94, 1-(4-cyano-3-(trifluoromethyl)phenyl)-N-(5-(4-(2-(7-(2-(2,6-dioxopiperidin-3-yl)-1,3-dioxoisoindolin-5-yl)-2,7-diazaspiro[3.5]nonan-2-yl)ethyl)piperidin-1-yl)pyridin-2-yl)piperidine-4-carboxamide] | 75% | 98% | 98% |  |
| N#Cc1ccc(N2CCC(C(=O)Nc3ccc(N4CCC(CCN5CCC6(CC5)CN(c5ccc7c(c5)C(=O)N(C5CCC(=O)NC5=O)C7=O)C6)CC4)cn3)CC2)cc1C(F)(F)F (centres unmarked) [Example 95, 1-(4-cyano-3-(trifluoromethyl)phenyl)-N-(5-(4-(2-(2-(2-(2,6-dioxopiperidin-3-yl)-1,3-dioxoisoindolin-5-yl)-2,7-diazaspiro[3.5]nonan-7-yl)ethyl)piperidin-1-yl)pyridin-2-yl)piperidine-4-carboxamide] | 62% | 96% | 97% |  |
| N#Cc1ccc(N2CCC(C(=O)Nc3ccc(N4CCC(CCN5CCC6(CC5)CN(c5ccc7c(n5)CN(C5CCC(=O)NC5=O)C7=O)C6)CC4)cn3)CC2)cc1C(F)(F)F (centres unmarked) [Example 96, 1-(4-cyano-3-(trifluoromethyl)phenyl)-N-(5-(4-(2-(2-(6-(2,6-dioxopiperidin-3-yl)-5-oxo-6,7-dihydro-5H-pyrrolo[3,4-b]pyridin-2-yl)-2,7-diazaspiro[3.5]nonan-7-yl)ethyl)piperidin-1-yl)pyridin-2-yl)piperidine-4-carboxamide] | 71% | 93% | 91% |  |
| N#Cc1ccc(N2CCC(C(=O)Nc3ccc(N4CCC(CCN5CC(N6CCN(c7ccc8c(c7)C(=O)N(C7CCC(=O)NC7=O)C8=O)CC6)C5)CC4)cn3)CC2)cc1C(F)(F)F (centres unmarked) [Example 97, 1-(4-cyano-3-(trifluoromethyl)phenyl)-N-(5-(4-(2-(3-(4-(2-(2,6-dioxopiperidin-3-yl)-1,3-dioxoisoindolin-5-yl)piperazin-1-yl)azetidin-1-yl)ethyl)piperidin-1-yl)pyridin-2-yl)piperidine-4-carboxamide] | 39% | 93% | 96% |  |
| N#Cc1ccc(N2CCC(C(=O)Nc3ccc(N4CCC(CCN5CC(N6CCN(c7ccc8c(n7)CN(C7CCC(=O)NC7=O)C8=O)CC6)C5)CC4)cn3)CC2)cc1C(F)(F)F (centres unmarked) [Example 98, 1-(4-cyano-3-(trifluoromethyl)phenyl)-N-(5-(4-(2-(3-(4-(6-(2,6-dioxopiperidin-3-yl)-5-oxo-6,7-dihydro-5H-pyrrolo[3,4-b]pyridin-2-yl)piperazin-1-yl)azetidin-1-yl)ethyl)piperidin-1-yl)pyridin-2-yl)piperidine-4-carboxamide] | 48% | 89% | 76% |  |
| N#Cc1ccc(N2CCC(C(=O)Nc3ccc(N4CCC(CCN5CCN(C6CN(c7ccc8c(c7)C(=O)N(C7CCC(=O)NC7=O)C8=O)C6)CC5)CC4)cn3)CC2)cc1C(F)(F)F (centres unmarked) [Example 99, 1-(4-cyano-3-(trifluoromethyl)phenyl)-N-(5-(4-(2-(4-(1-(2-(2,6-dioxopiperidin-3-yl)-1,3-dioxoisoindolin-5-yl)azetidin-3-yl)piperazin-1-yl)ethyl)piperidin-1-yl)pyridin-2-yl)piperidine-4-carboxamide] | 70% | 98% | 96% |  |
| N#Cc1ccc(N2CCC(C(=O)Nc3ccc(N4CCC(CCN5CCN(C6CN(c7ccc8c(n7)CN(C7CCC(=O)NC7=O)C8=O)C6)CC5)CC4)cn3)CC2)cc1C(F)(F)F (centres unmarked) [Example 100, 1-(4-cyano-3-(trifluoromethyl)phenyl)-N-(5-(4-(2-(4-(1-(6-(2,6-dioxopiperidin-3-yl)-5-oxo-6,7-dihydro-5H-pyrrolo[3,4-b]pyridin-2-yl)azetidin-3-yl)piperazin-1-yl)ethyl)piperidin-1-yl)pyridin-2-yl)piperidine-4-carboxamide] | 31% | 84% | 89% |  |
| N#Cc1ccc(N2CCC(C(=O)Nc3ccc(N4CCC(CCN5CC6CN(c7ccc8c(c7)C(=O)N(C7CCC(=O)NC7=O)C8=O)CC6C5)CC4)cn3)CC2)cc1C(F)(F)F (centres unmarked) [Example 101, 1-(4-cyano-3-(trifluoromethyl)phenyl)-N-(5-(4-(2-(5-(2-(2,6-dioxopiperidin-3-yl)-1,3-dioxoisoindolin-5-yl)hexahydropyrrolo[3,4-c]pyrrol-2(1H)-yl)ethyl)piperidin-1-yl)pyridin-2-yl)piperidine-4-carboxamide] | 63% | 95% | 95% |  |
| CN(CCC1CCN(c2ccc(NC(=O)C3CCN(c4ccc(C#N)c(C(F)(F)F)c4)CC3)nc2)CC1)C1CCN(c2ccc3c(c2)C(=O)N(C2CCC(=O)NC2=O)C3=O)CC1 (centres unmarked) [Example 102, 1-(4-cyano-3-(trifluoromethyl)phenyl)-N-(5-(4-(2-((1-(2-(2,6-dioxopiperidin-3-yl)-1,3-dioxoisoindolin-5-yl)piperidin-4-yl)(methyl)amino)ethyl)piperidin-1-yl)pyridin-2-yl)piperidine-4-carboxamide] | 35% | 90% | 92% |  |
| N#Cc1ccc(N2CCN(C(=O)Nc3ccc(N4CCC(CN5CC6(CCN(c7ccc8c(c7)C(=O)N(C7CCC(=O)NC7=O)C8=O)CC6)C5)CC4)nc3)CC2)cc1C(F)(F)F (centres unmarked) [Example 103, 4-(4-cyano-3-(trifluoromethyl)phenyl)-N-(6-(4-((7-(2-(2,6-dioxopiperidin-3-yl)-1,3-dioxoisoindolin-5-yl)-2,7-diazaspiro[3.5]nonan-2-yl)methyl)piperidin-1-yl)pyridin-3-yl)piperazine-1-carboxamide] | -9% | 15% | 44% | 58% |
| N#Cc1ccc(N2CCN(C(=O)Nc3ccc(N4CCC(CN5CC6(CCN(c7ccc8c(c7)C(=O)N(C7CCC(=O)NC7=O)C8=O)CC6)C5)CC4)nc3)CC2)cc1Cl (centres unmarked) [Example 104, 4-(3-chloro-4-cyanophenyl)-N-(6-(4-((7-(2-(2,6-dioxopiperidin-3-yl)-1,3-dioxoisoindolin-5-yl)-2,7-diazaspiro[3.5]nonan-2-yl)methyl)piperidin-1-yl)pyridin-3-yl)piperazine-1-carboxamide] | -2% | -5% | 36% | 59% |
